# Reference: patent publication US20130072430A1, “METHODS FOR TREATMENT OR PROPHYLAXIS OF KIDNEY OR LIVER DYSFUNCTION” (NPS PHARMACEUTICALS, INC., priority 2010, published 2013)
# Test system: Human patients with short bowel syndrome
# Experiment: Example 2: liver biomarkers (albumin, gamma glutamyl transferase, total bilirubin, ALT, AST, ALP) in short bowel syndrome patients, every four weeks for 24 weeks
# Format: in vivo
# Details: 0.05 mg/kg/d
# Protocol: To further confirm the results of Example 1, a further study was conducted involving more individuals and additional diagnostic biomarkers. Human patients with short bowel syndrome were divided into two groups: a control group (43 total individuals) to receive placebo, and an experimental group (42 total individuals) to receive teduglutide at 0.05 mg/kg/day throughout the study. Patients were treated by subcutaneous injection of placebo or the appropriate dose of teduglutide. Known biomarkers of liver function were monitored every four weeks, for 24 weeks. The liver biomarkers tested included albumin, gamma glutamyl transferase, total bilirubin, ALT and AST and ALP. Before administration of placebo or teduglutide, diagnostic biomarker levels were tested to establish a baseline for each individual.
# To determine the effect of GLP-2 on the levels of the diagnostic biomarkers, the average level of each biomarker was measured for the placebo and teduglutide treated groups for each visit. Furthermore, the average change from baseline was calculated using the established baseline values. For FIGS. 17-28, p-values were calculated using the t-test.
# P values are provided, which were calculated for each distribution of biomarker changes for each week using the chi-squared test.
compound,measurement,setting,value
CC[C@H](C)[C@H](NC(=O)[C@H](Cc1ccccc1)NC(=O)[C@H](CC(=O)O)NC(=O)[C@H](CCCNC(=N)N)NC(=O)[C@H](C)NC(=O)[C@H](C)NC(=O)[C@H](CC(C)C)NC(=O)[C@H](CC(N)=O)NC(=O)[C@H](CC(=O)O)NC(=O)[C@H](CC(C)C)NC(=O)[C@@H](NC(=O)[C@@H](NC(=O)[C@H](CC(N)=O)NC(=O)[C@H](CCSC)NC(=O)[C@H](CCC(=O)O)NC(=O)[C@H](CC(=O)O)NC(=O)[C@H](CO)NC(=O)[C@H](Cc1ccccc1)NC(=O)[C@H](CO)NC(=O)CNC(=O)[C@H](CC(=O)O)NC(=O)CNC(=O)[C@@H](N)Cc1c[nH]cn1)[C@@H](C)O)[C@@H](C)CC)C(=O)N[C@@H](CC(N)=O)C(=O)N[C@@H](Cc1c[nH]c2ccccc12)C(=O)N[C@@H](CC(C)C)C(=O)N[C@H](C(=O)N[C@@H](CCC(N)=O)C(=O)N[C@H](C(=O)N[C@@H](CCCCN)C(=O)N[C@H](C(=O)N[C@H](C(=O)N[C@@H](CC(=O)O)C(=O)O)[C@@H](C)O)[C@@H](C)CC)[C@@H](C)O)[C@@H](C)CC [teduglutide],"Gamma Glutamyl Transferase Change from Baseline, Median","Week 4, n=40",−0.5 U/L
same,"Gamma Glutamyl Transferase Observed Value, Mean","Week 4, n=40",78.9 U/L
same,"Gamma Glutamyl Transferase Observed Value, Median","Week 4, n=40",53.5 U/L
same,"ALT >10% decrease from Baseline, % of subjects","Week 8, m=40",(65.0%)
same,"ALT >10% decrease from Baseline, n subjects","Week 8, m=40",26
same,"ALT >10% increase from Baseline, % of subjects","Week 8, m=40",(17.5%)
same,"ALT >10% increase from Baseline, n subjects","Week 8, m=40",7
same,"ALT Within 10% of Baseline, % of subjects","Week 8, m=40",(17.5%)
same,"ALT Within 10% of Baseline, n subjects","Week 8, m=40",7
same,"AST >10% decrease from Baseline, % of subjects","Week 8, m=40",(60.0%)
same,"AST >10% decrease from Baseline, n subjects","Week 8, m=40",24
same,"AST >10% increase from Baseline, % of subjects","Week 8, m=40",(20.0%)
same,"AST >10% increase from Baseline, n subjects","Week 8, m=40",8
same,"AST Within 10% of Baseline, % of subjects","Week 8, m=40",(20.0%)
same,"AST Within 10% of Baseline, n subjects","Week 8, m=40",8
same,"Albumin >10% decrease from Baseline, % of subjects","Week 8, m=40",(2.5%)
same,"Albumin >10% decrease from Baseline, n subjects","Week 8, m=40",1
same,"Albumin >10% increase from Baseline, % of subjects","Week 8, m=40",(2.5%)
same,"Albumin >10% increase from Baseline, n subjects","Week 8, m=40",1
same,"Albumin Within 10% of Baseline, % of subjects","Week 8, m=40",(95.0%)
same,"Albumin Within 10% of Baseline, n subjects","Week 8, m=40",38
same,"Alkaline Phosphatase >10% decrease from Baseline, % of subjects","Week 8, m=40",(62.5%)
same,"Alkaline Phosphatase >10% decrease from Baseline, n subjects","Week 8, m=40",25
same,"Alkaline Phosphatase >10% increase from Baseline, % of subjects","Week 8, m=40",(5.0%)
same,"Alkaline Phosphatase >10% increase from Baseline, n subjects","Week 8, m=40",2
same,"Alkaline Phosphatase Within 10% of Baseline, % of subjects","Week 8, m=40",(32.5%)
same,"Alkaline Phosphatase Within 10% of Baseline, n subjects","Week 8, m=40",13
same,"Bilirubin >10% decrease from Baseline, % of subjects","Week 8, m=40",(50.0%)
same,"Bilirubin >10% decrease from Baseline, n subjects","Week 8, m=40",20
same,"Bilirubin >10% increase from Baseline, % of subjects","Week 8, m=40",(25.0%)
same,"Bilirubin >10% increase from Baseline, n subjects","Week 8, m=40",10
same,"Bilirubin Within 10% of Baseline, % of subjects","Week 8, m=40",(25.0%)
same,"Bilirubin Within 10% of Baseline, n subjects","Week 8, m=40",10
same,"ALKALINE PHOSPHATASE Change from Baseline, Median","Week 8, n=40",−18.5 U/L
same,"ALT Change from Baseline, Mean","Week 8, n=40",−10.2 U/L
same,"ALT Change from Baseline, Median","Week 8, n=40",−5.5 U/L
same,"ALT Observed Value, Mean","Week 8, n=40",33.9 U/L
same,"ALT Observed Value, Median","Week 8, n=40",26 U/L
same,"AST Change from Baseline, Mean","Week 8, n=40",−5.1 U/L
same,"AST Change from Baseline, Median","Week 8, n=40",−5 U/L
same,"AST Observed Value, Mean","Week 8, n=40",27.5 U/L
same,"AST Observed Value, Median","Week 8, n=40",23.5 U/L
same,"Albumin Change from Baseline, Mean","Week 8, n=40",-0.7 g/L
same,"Albumin Change from Baseline, Median","Week 8, n=40",-1 g/L
same,"Albumin Observed Value, Mean","Week 8, n=40",41.7 g/L
same,"Albumin Observed Value, Median","Week 8, n=40",42 g/L
same,"Alkaline Phosphatase Change from Baseline, Mean","Week 8, n=40",−24.3 U/L
same,"Alkaline Phosphatase Observed Value, Mean","Week 8, n=40",112.0 U/L
same,"Alkaline Phosphatase Observed Value, Median","Week 8, n=40",94 U/L
same,"Bilirubin Change from Baseline, Mean","Week 8, n=40",-1.60 µmol/L
same,"Bilirubin Change from Baseline, Median","Week 8, n=40",-0.95 µmol/L
same,"Bilirubin Observed Value, Mean","Week 8, n=40",10.81 µmol/L
same,"Bilirubin Observed Value, Median","Week 8, n=40",7.75 µmol/L
same,"Gamma Glutamyl Transferase Change from Baseline, Mean","Week 8, n=40",−5.7 U/L
